# Results: a melting point compilation (Tetko et al.)
row,SMILES,melting point [°C]
1,CC(=O)N(c1nc(CCl)cs1)c1ccccc1F,150 to 155
2,O=Cc1c(OCC(=O)O)ccc2ccccc12,174 to 176
3,N#Cc1cccc(OCc2ccoc2C(=O)O)c1,177 to 179
4,Cc1ccc(-n2nc(C(=O)O)cc2C)cc1,149 to 151
5,NC(=O)c1ccc(N)c(F)c1,152 to 154
6,O=C(O)c1csc2c1CCCC2,159 to 161
7,NNC(=O)c1cc(F)ccc1Br,149 to 151
8,O=C(O)c1cccc(OCc2cccc(Cl)c2)c1,144 to 146
9,O=S(=O)(O)c1ccc2c(c1)CCCO2,80 to 82
10,O=C(O)COCc1nc2ccccc2c(=O)[nH]1,259 to 261
11,O=C(O)c1cnn(-c2ccccn2)c1C(F)(F)F,156 to 158
12,COc1ccc(Cl)c(S(=O)(=O)Cl)c1,41 to 43
13,Cc1cc(C(=O)O)nn1-c1ccc(Cl)cc1,139 to 141
14,Cc1nc(-c2ccc(O)cc2)cs1,210 to 212
15,CC(C)(C)n1nc[nH]c1=O,219 to 221
16,NCCc1c[nH]c2cc(F)ccc12,74 to 76
17,COc1cc(/C=C/C(=O)O)cc2c1OCCO2,182 to 185
18,O=C(O)Cc1c(F)cncc1Cl,99 to 101
19,O=C(CCl)NC(=O)Nc1ccc2c(c1)OCCO2,128 to 130
20,COc1cc(F)c(N)cc1F,80 to 82
21,CNc1n[nH]c(N)c1S(C)(=O)=O,171 to 173
22,COC(=O)CCSc1ccc([N+](=O)[O-])cc1C(=O)O,165 to 167
23,O=C(Nc1ccc2[nH]ccc2c1)c1ccc(F)cc1Br,185 to 187
24,O=C(CSc1ccccc1C(=O)O)NCC1CCCCC1,118 to 120

row,SMILES,melting point [°C]
1,Cc1nn(C)c(C)c1C(=O)C(N)=O,182 to 184
2,C=CCc1cc([N+](=O)[O-])ccc1O,68 to 70
3,COC(=O)Cn1ccc(N)n1,74 to 76
4,CCn1ncc(C#N)c1N,159 to 161
5,Oc1ccccc1OCc1cscn1,120 to 122
6,O=c1[nH]nc(-c2ccc(Cl)c(Cl)c2)c2ccccc12,274 to 276
7,ClCc1noc(-c2ccc(Cl)cc2)n1,79 to 81
8,CCSCc1ccc(C(=O)O)cc1,123 to 125
9,CC(C)c1ccc(S(=O)(=O)N2CC(O)CC2C(=O)O)cc1 (configuration not stated),153 to 155
10,N#Cc1ccc(-c2nnco2)cc1,142 to 144
11,COc1cc(C=O)ccc1OCc1cccs1,79 to 81
12,COc1cc(/C(C)=N\O)ccc1OCc1ccccc1,117 to 119
13,CN1CC(=O)N(c2ccc([N+](=O)[O-])cc2)C1=O,161 to 163
14,O=C(O)c1ccc2nccnc2c1,233 to 235
15,CCc1ccc(NC(=O)c2nnc(CCl)s2)cc1,126 to 128
16,CC(=O)c1c(C)oc(N)c1C#N,241 to 243
17,N=C1NS(=O)(=O)Cc2ccccc21,264 to 266
18,Cn1cc(S(N)(=O)=O)cc1C(=O)O,202 to 204
19,CC(N)c1ccc(NC(=O)Nc2ccccc2)cc1 (configuration not stated),165 to 167
20,N#CCCn1cc(C(=O)O)c(-c2cccc([N+](=O)[O-])c2)n1,242 to 244
21,Nc1cccnc1Nc1ccc2c(c1)C(=O)NC2=O,269 to 271
22,O=S(=O)(Cl)Cc1ccc(F)cc1Br,45 to 47
23,CC1(C)CCC(C#N)=C1N,108 to 110
24,Cc1csc(-c2cccc(O)c2)n1,108 to 110

row,SMILES,melting point [°C]
1,CCOC(=O)/C(=C(/O)C(C)Cl)c1nc(C)cs1 (configuration not stated),123 to 125
2,OC1(c2ccccc2)CCC1,39 to 41
3,O=C(O)c1ccc(-c2ccccc2F)o1,173 to 175
4,COc1ccc(C(=O)NC(C(=O)O)C(C)C)cc1 (configuration not stated),163 to 165
5,O=C(O)c1cnc(OCC(F)(F)F)c(Cl)c1,162 to 164
6,O=C(O)c1ccc(-n2nnc3ccccc32)cc1,308 to 310
7,Nc1nncn1Cc1ccccc1,210 to 212
8,CN1CCC(Nc2ccccc2N)CC1,86 to 88
9,O=[N+]([O-])c1ccc(F)c(-n2cnnn2)c1,101 to 103
10,FC(F)c1nc2c(Cl)cccc2[nH]1,125 to 127
11,Nc1ccnn1Cc1ccsc1,33 to 35
12,COc1cc(C(=O)O)c(F)cc1N,189 to 191
13,O=C(CCl)Nc1cc(C2CC2)nn1-c1ccccc1,120 to 122
14,ON=C1CCN(Cc2ccccc2)CC1,126 to 128
15,Nc1nc2cc3c(cc2s1)OC(F)(F)O3,191 to 193
16,COCCNc1nc(Cl)nc(Cl)n1,71 to 73
17,NC(=O)c1sccc1-c1ccccc1,114 to 116
18,COc1ccc2c(c1)CNC(c1ccccc1)C2 (configuration not stated),90 to 92
19,O=C(O)C1CCN(c2ccc(C(F)(F)F)cc2[N+](=O)[O-])CC1,141 to 143
20,CCc1nnc(S)n1N,143 to 145
21,NC(c1ccc(Cl)cc1)c1ccc(C(F)(F)F)cc1 (configuration not stated),58 to 60
22,COCCN(C(C)=O)c1nc(CCl)cs1,98 to 100
23,CCOc1ccc(C(=O)c2ccccc2Cl)cc1,86 to 88
24,O=C(O)CCNS(=O)(=O)c1ccc(Br)cc1,161 to 163

row,SMILES,melting point [°C]
1,Cc1ccc(NC(=O)N(C)C)c(C(=O)O)c1,163 to 165
2,O=C(O)C1CC1c1c(F)cccc1Cl (configuration not stated),109 to 111
3,Cc1c(Cl)cc(S(=O)(=O)Cl)cc1[N+](=O)[O-],60 to 62
4,CN(C)C(=O)c1ccc(F)nc1,44 to 46
5,O=C(COc1cccc2ccccc12)N1CCNCC1,141 to 143
6,O=C(O)CCCCCCN1C(=O)C=CC1=O,79 to 81
7,COc1coc(CCl)cc1=O,116 to 118
8,N#Cc1ccccc1CS(=O)(=O)Cl,85 to 87
9,O=C(O)CCOc1ccccc1[N+](=O)[O-],121 to 123
10,COc1ccc(C(NC(=O)CCl)c2ccc(OC)cc2)cc1,118 to 120
11,OCc1ccc(CCl)cc1,55 to 57
12,CC(C)(C)OC(=O)NC(C)(C)c1noc(CCl)n1,79 to 81
13,CCOC(=O)c1ccc(Br)c(S(=O)(=O)Cl)c1,93 to 95
14,CC1CSC(=S)N1 (configuration not stated),94 to 96
15,CCOC=C1C(=O)N(c2ccc(OCC)cc2)C(=O)c2ccccc21,175 to 177
16,O=C1OCCN1c1ccc(S(=O)(=O)Cl)cc1,168 to 170
17,Cc1c(CC(=O)O)nnn1-c1ccccc1,169 to 171
18,COC(=O)c1cc(O)ccc1[N+](=O)[O-],101 to 103
19,CCN1N=C(C(=O)O)CCC1=O,147 to 149
20,O=C(O)CNC(=O)Nc1ccccc1,196 to 198
21,CC(=CC(=O)O)c1ccccc1F,101 to 103

# Next, values leading:
row,melting point [°C],SMILES
1,111 to 113,O=c1ccccn1CCOc1ccc(Br)cc1
2,144 to 146,O=S1(=O)CC(S(=O)(=O)Cl)c2ccccc21 (configuration not stated)
3,91 to 93,O=C(Nc1ccc(S(=O)(=O)Cl)cc1[N+](=O)[O-])C(F)(F)F
4,193 to 195,CS(=O)(=O)c1ccc(N)cc1Cl
5,54 to 56,O=C1CCn2cccc21
6,151 to 153,Cc1ccc(N2C(=O)C=CC2=O)cc1
7,134 to 136,Nc1cc(S(N)(=O)=O)ccc1F
8,204 to 206,CN(c1ccccc1)S(=O)(=O)c1cc(C(=O)O)ccc1Br
9,45 to 47,N#Cc1ccc(C2OCCO2)cc1
10,212 to 214,O=C(O)c1ccc(Cl)c(Cl)c1O
11,110 to 112,Nc1cc(-c2cccc(Cl)c2Cl)[nH]n1
12,208 to 210,Cc1ccc(-n2nc(C(=O)O)c3c2CCCC3)cc1F
13,139 to 141,O=C(O)C1CCCN(C(=O)Nc2ccccc2F)C1 (configuration not stated)
14,115 to 117,Nc1ccc(Cl)c(C(=O)Nc2ccccc2)c1
15,199 to 201,Cc1c(C(=O)O)oc2c1C(=O)CC(C)(C)C2
16,73 to 75,CCc1noc(CC)c1CC(=O)O
17,111 to 113,CC(=O)N1CSCC1C(=O)O (configuration not stated)
18,124 to 126,CCc1ccc(C(=O)c2ccc(N)cc2)o1
19,74 to 76,NCc1ccc(N2CC=CC2)cc1
20,318 to 320,O=C1NC(=O)C(Cc2ccccc2)(Cc2ccccc2)N1
21,129 to 131,Cc1ccc(C)c(SCc2cccc(C(=O)O)c2)c1
22,292 to 294,O=c1[nH]c(=O)c2ccccc2s1
23,110 to 112,O=S(=O)(NCCOc1ncc(C(F)(F)F)cc1Cl)c1c(F)cccc1F
24,191 to 193,COc1cc(C(=O)O)cc(Cl)c1OC
25,76 to 78,Cc1cc(C(=O)CCl)c(C)n1-c1ccccn1

row,melting point [°C],SMILES
1,188 to 190,CC(C)CC1CC(C(=O)O)CC(=O)N1 (configuration not stated)
2,248 to 250,Nc1nc(-c2nc3ccccc3s2)cs1
3,197 to 199,O=C(O)c1cn(-c2ccccc2)nc1-c1cccs1
4,222 to 224,O=C(Nc1cccc(F)c1)C1CSCN1 (configuration not stated)
5,177 to 179,Cc1cccc(C(=O)Nc2cccc(O)c2)n1
6,204 to 206,O=C(O)C(=Cc1ccc(Cl)cc1)c1ccc(F)cc1
7,128 to 130,O=C(O)Cc1csc(Cc2ccccc2)n1
8,169 to 171,CC(C)(C)C1CCc2sc(C(=O)O)cc2C1 (configuration not stated)
9,269 to 271,Oc1ccc(C2=Nn3c(nnc3-c3ccc(Br)cc3)SC2)cc1O
10,257 to 259,O=C(O)c1cc(N2CCOCC2)ccn1
11,167 to 169,O=C(O)c1nccn2ccnc12
12,227 to 229,Cc1ccc(F)c2c1NC(=O)C2=O
13,199 to 201,N#Cc1cccc(C(=O)NNC(=O)CCl)c1
14,134 to 136,COC(=O)c1cc([N+](=O)[O-])cc(S(C)(=O)=O)c1
15,129 to 131,NCc1cc2c([nH]c1=O)CCC2
16,64 to 66,COc1ncccc1O
17,60 to 62,CC(C)(C)Oc1ccc(N)cc1
18,199 to 201,CC(C(=O)O)N1CCSCC1 (configuration not stated)
19,129 to 131,COC(=O)c1cc(O)c(C)c(F)c1
20,159 to 161,O=C(O)c1oc2ccccc2c1CSc1nnc[nH]1
21,164 to 166,Cc1noc(C2CC2)c1C(=O)O
22,148 to 152,CCN(CC)S(=O)(=O)c1ccc(N2CCN(C)CC2)c(N)c1
23,134 to 136,CS(=O)(=O)Nc1cccc(OCCN)c1
24,174 to 176,CS(=O)(=O)NCC(=O)O
